From ChEMBL document CHEMBL5154823, “Amphiphilic cyclic peptide [W4KR5]-Antibiotics combinations as broad-spectrum antimicrobial agents” (Eur J Med Chem, 2022)
The source made the active and inactive calls. The rule behind the calls is not given here. Where a SMILES comes first, the peptide text is derived from it. Bridges are numbered along the chain shown (N, C = ends). [ ]: non-standard residue; d: D form. The star is where a group is joined. X1 = C[C@H](O)[C@H]1C(=O)N2C(C(=O)*)=C(S[C@@H]3CN[C@H](C(=O)N(C)C)C3)[C@@H](C)[C@H]12; X2 = CC[C@H](C)CCCCC(=O)*; Dab = NCC[C@H](N)C(=O)O

How the values were obtained:
Staphylococcus aureus [1] = experiment: Antibacterial activity against Staphylococcus aureus ATCC 29213 assessed as reduction in microbial growth incubated for 24 hrs by microbroth dilution method; type: functional
Cell membrane [2] = experiment: Induction of membrane disruption in Staphylococcus aureus ATCC BAA -1556 assessed as increase in PI positive cells at 4 times of MIC incubated for 2 hrs by Propidium iodide staining based FACS cytometry analysis relative to control; type: subcellular
[3] = Cytotoxicity against HEK293 cells assessed as effect on cell viability at 10 to 25 ug/ml incubated for 24 hrs by microplate reader analysis relative to control; type: toxicity, cell-based; conditions: human, at 10 to 25 µg/mL, dose 10-25 µg/ml, read-out: Activity
Pseudomonas aeruginosa [4] = experiment: Antibacterial activity against Pseudomonas aeruginosa ATCC 27883 assessed as reduction in microbial growth incubated for 24 hrs by microbroth dilution method; type: functional
Klebsiella pneumoniae [5] = experiment: Antibacterial activity against imipenem resistant Klebsiella pneumoniae ATCC BAA 1705 assessed as reduction in microbial growth incubated for 24 hrs by microbroth dilution method; type: functional
Pseudomonas aeruginosa [6] = experiment: Antibacterial activity against carbapenem resistant Pseudomonas aeruginosa ATCC BAA 1744 assessed as reduction in microbial growth incubated for 24 hrs by microbroth dilution method; type: functional
Klebsiella pneumoniae [7] = experiment: Antibacterial activity against Klebsiella pneumoniae ATCC 13883 assessed as reduction in microbial growth incubated for 24 hrs by microbroth dilution method; type: functional
Cell membrane [8] = experiment: Induction of membrane disruption in Pseudomonas aeruginosa ATCC BAA 1744 assessed as increase in PI positive cells at 4 times of MIC incubated for 2 hrs by Propidium iodide staining based FACS cytometry analysis relative to control; type: subcellular
Escherichia coli [9] = experiment: Antibacterial activity against Escherichia coli ATCC 25922 assessed as reduction in microbial growth incubated for 24 hrs by microbroth dilution method; type: functional
HepaRG [10] = experiment: Cytotoxicity against human HepaRG cells assessed as assessed as reduction in cell viability at 10 ug/ml incubated for 24 hrs by microplate reader analysis; type: toxicity, cell-based; conditions: dose 10 µg/ml
Staphylococcus aureus [11] = experiment: Antibacterial activity against Methicillin resistant Staphylococcus aureus ATCC BAA -1556 assessed as reduction in microbial growth incubated for 24 hrs by microbroth dilution method; type: functional
HepaRG [12] = experiment: Cytotoxicity against human HepaRG cells assessed as assessed as reduction in cell viability at 50 to 150 ug/ml incubated for 24 hrs by microplate reader analysis relative to control; type: toxicity, cell-based; conditions: at 50 to 150 µg/mL, dose 50-150 µg/ml
[13] = Hemolytic activity in human Red blood cell incubated for 2 hrs by spectrophotometric analysis; type: toxicity, cell-based, Erythrocyte; conditions: red blood cells (erythrocytes)
Escherichia coli [14] = experiment: Antibacterial activity against carbapenem and NDM-1 positive resistant Escherichia coli ATCC BAA 2452 assessed as reduction in microbial growth incubated for 24 hrs by microbroth dilution method; type: functional
HEK293 [15] = experiment: Cytotoxicity against HEK293 cells assessed as effect on cell viability at 10 ug/ml incubated for 24 hrs by microplate reader analysis; type: toxicity, cell-based; conditions: human, hek293, 24 h, dose 10 µg/ml
Pseudomonas aeruginosa [16] = experiment: Bactericidal activity against Pseudomonas aeruginosa ATCC BAA 1744 assessed as decrease of bacterial growth at MIC measured after 24 hrs by Time kill assay; type: functional, organism-based
Cell membrane [17] = experiment: Induction of membrane disruption in Pseudomonas aeruginosa ATCC BAA 1744 assessed as increase in PI positive cells at MIC incubated for 2 hrs by Propidium iodide staining based FACS cytometry analysis relative to control
Cell membrane [18] = experiment: Induction of membrane disruption in Staphylococcus aureus ATCC BAA -1556 assessed as increase in PI positive cells at MIC incubated for 2 hrs by Propidium iodide staining based FACS cytometry analysis relative to control
HEK293 [19] = experiment: Cytotoxicity against HEK293 cells assessed as effect on cell viability at 10 to 200 ug/ml incubated for 24 hrs by microplate reader analysis; type: toxicity, cell-based; conditions: human, hek293, 24 h, dose 10-200 µg/ml
Staphylococcus aureus [20] = experiment: Bactericidal activity against methicillin resistant Staphylococcus aureus ATCC BAA 1556 assessed as reduction in bacterial growth at MIC measured after 16 hrs by Time kill assay; type: functional, organism-based
Escherichia coli [21] = experiment: Bactericidal activity against Escherichia coli ATCC BAA 2452 assessed as decrease of bacterial growth at MIC measured after 15 hrs by Time kill assay; type: functional, organism-based

| SMILES | MIC (Pseudomonas aeruginosa [4]) [µg/mL] | MIC (Klebsiella pneumoniae [5]) [µg/mL] | MIC (Escherichia coli [9]) [µg/mL] | MIC (Staphylococcus aureus [11]) [µg/mL] | other results |
| --- | --- | --- | --- | --- | --- |
| C[C@H](O)[C@H]1C(=O)N2C(C(=O)NCCCC[C@@H]3NC(=O)[C@H](CCCNC(=N)N)NC(=O)[C@H](CCCNC(=N)N)NC(=O)[C@H](CCCNC(=N)N)NC(=O)[C@H](CCCNC(=N)N)NC(=O)[C@H](CCCNC(=N)N)NC(=O)[C@H](Cc4c[nH]c5ccccc45)NC(=O)[C@H](Cc4c[nH]c5ccccc45)NC(=O)[C@H](Cc4c[nH]c5ccccc45)NC(=O)[C@H](Cc4c[nH]c5ccccc45)NC3=O)=C(S[C@@H]3CN[C@H](C(=O)N(C)C)C3)[C@@H](C)[C@H]12 (cyclo(K(X1)WWWWRRRRR)) | 16 | 16 | 4 | 4 | MIC (Staphylococcus aureus [1]): 2 µg/mL; Activity (Cell membrane [2]): 29.6%; viability at 24 h [3]: 90%; MIC (Pseudomonas aeruginosa [6]): 16 µg/mL; MIC (Klebsiella pneumoniae [7]): 4 µg/mL; Activity (Cell membrane [8]): 26.4%; Activity (HepaRG [10]): Non-Toxic; Activity (HepaRG [12]): 69%; HC50 at 2 h [13]: 255 µg/mL; MIC (Escherichia coli [14]): 8 µg/mL; Activity (HEK293 [15]): Non-Toxic |
| CCC[C@@H]1C[C@@H](C(=O)N[C@@H]([C@H]2O[C@H](SC)[C@H](O)[C@@H](O)[C@H]2O)[C@H](C)Cl)N(C)C1 [CLINDAMYCIN] | > 128 | 256 |  |  |  |
| C[C@H]1COc2c(N3CCN(C)CC3)c(F)cc3c(=O)c(C(=O)O)cn1c23.C[C@H]1COc2c(N3CCN(C)CC3)c(F)cc3c(=O)c(C(=O)O)cn1c23.O [LEVOFLOXACIN] |  | 64 | 64 | > 128 |  |
| CC[C@H](C)CCCCC(=O)N[C@@H](CCN)C(=O)N[C@H](C(=O)N[C@@H](CCN)C(=O)N[C@H]1CCNC(=O)[C@H]([C@@H](C)O)NC(=O)[C@H](CCN)NC(=O)[C@H](CCN)NC(=O)[C@H](CC(C)C)NC(=O)[C@@H](Cc2ccccc2)NC(=O)[C@H](CCN)NC1=O)[C@@H](C)O (X2-[Dab]T[Dab][Dab][Dab][dF]L[Dab][Dab]T; lactam 4-C) | 1 | 1 | 2 | 64 |  |
| NC[C@H]1O[C@H](O[C@H]2[C@H](O)[C@@H](O[C@H]3O[C@H](CO)[C@@H](O)[C@H](N)[C@H]3O)[C@H](N)C[C@@H]2N)[C@H](O)[C@@H](O)[C@@H]1O [KANAMYCIN] | > 128 | 64 | 32 | > 128 |  |
| O=C(O)c1cn(C2CC2)c2cc(N3CCNCC3)c(F)cc2c1=O [CIPROFLOXACIN] |  |  | 64 |  |  |
| NC[C@H]1O[C@H](O[C@H]2[C@H](O)[C@@H](O[C@H]3O[C@H](CO)[C@@H](O)[C@H](N)[C@H]3O)[C@H](N)C[C@@H]2N)[C@H](N)C[C@@H]1O [TOBRAMYCIN] | 0.5 | 16 | 8 | 0.5 |  |
| C[C@@H](O)[C@H]1C(=O)N2C(C(=O)O)=C(S[C@@H]3CN[C@H](C(=O)N(C)C)C3)[C@H](C)[C@H]12 [MEROPENEM] | 1 |  | 1 | 2 | MIC (Staphylococcus aureus [1]): 2 µg/mL; Activity (Pseudomonas aeruginosa [16]): Active; Activity (Cell membrane [17]): 14.7%; Activity (Cell membrane [18]): 12.2%; Activity (Cell membrane [2]): 17.2%; Activity (HEK293 [19]): Non-Toxic; MIC (Pseudomonas aeruginosa [6]): 8 µg/mL; Activity (Staphylococcus aureus [20]): Active; MIC (Klebsiella pneumoniae [7]): 1 µg/mL; Activity (Cell membrane [8]): 22.1%; Activity (HepaRG [10]): Non-Toxic; Activity (Escherichia coli [21]): Active; HC50 at 2 h [13]: > 500 µg/mL; Activity (HEK293 [15]): Non-Toxic |
| CN(C)[C@@H]1C(O)=C(C(N)=O)C(=O)[C@@]2(O)C(O)=C3C(=O)c4c(O)cccc4[C@@](C)(O)[C@H]3C[C@@H]12 [TETRACYCLINE] | 32 | 16 | 8 | 0.25 |  |
| CN[C@H](CC(C)C)C(=O)N[C@H]1C(=O)N[C@@H](CC(N)=O)C(=O)N[C@H]2C(=O)N[C@H]3C(=O)N[C@H](C(=O)N[C@H](C(=O)O)c4cc(O)cc(O)c4-c4cc3ccc4O)[C@H](O)c3ccc(c(Cl)c3)Oc3cc2cc(c3O[C@@H]2O[C@H](CO)[C@@H](O)[C@H](O)[C@H]2O[C@H]2C[C@](C)(N)[C@H](O)[C@H](C)O2)Oc2ccc(cc2Cl)[C@H]1O [VANCOMYCIN] | 256 | 256 | 256 |  |  |
| CCCCCCCCCC(=O)N[C@@H](Cc1c[nH]c2ccccc12)C(=O)N[C@H](CC(N)=O)C(=O)N[C@@H](CC(=O)O)C(=O)N[C@@H]1C(=O)NCC(=O)N[C@@H](CCCN)C(=O)N[C@@H](CC(=O)O)C(=O)N[C@H](C)C(=O)N[C@@H](CC(=O)O)C(=O)NCC(=O)N[C@H](CO)C(=O)N[C@@H]([C@H](C)CC(=O)O)C(=O)N[C@@H](CC(=O)c2ccccc2N)C(=O)O[C@@H]1C | > 128 | 256 | > 128 |  |  |
